Values belong to the molecule of their own block, whether it stands above or below them.
How the values were obtained:
Assay type in all cases: cell-based
[1] = target: T1, TRPC6 (Homo sapiens, UniProt Q9Y210); assay: Fura-2 calcium imaging in HEK-TRPC6 cells; also whole-cell patch clamp of hTRPC6 in HEK293; design: human TRPC6 expressed in HEK cells
T1 sequence (Q9Y210 1-931): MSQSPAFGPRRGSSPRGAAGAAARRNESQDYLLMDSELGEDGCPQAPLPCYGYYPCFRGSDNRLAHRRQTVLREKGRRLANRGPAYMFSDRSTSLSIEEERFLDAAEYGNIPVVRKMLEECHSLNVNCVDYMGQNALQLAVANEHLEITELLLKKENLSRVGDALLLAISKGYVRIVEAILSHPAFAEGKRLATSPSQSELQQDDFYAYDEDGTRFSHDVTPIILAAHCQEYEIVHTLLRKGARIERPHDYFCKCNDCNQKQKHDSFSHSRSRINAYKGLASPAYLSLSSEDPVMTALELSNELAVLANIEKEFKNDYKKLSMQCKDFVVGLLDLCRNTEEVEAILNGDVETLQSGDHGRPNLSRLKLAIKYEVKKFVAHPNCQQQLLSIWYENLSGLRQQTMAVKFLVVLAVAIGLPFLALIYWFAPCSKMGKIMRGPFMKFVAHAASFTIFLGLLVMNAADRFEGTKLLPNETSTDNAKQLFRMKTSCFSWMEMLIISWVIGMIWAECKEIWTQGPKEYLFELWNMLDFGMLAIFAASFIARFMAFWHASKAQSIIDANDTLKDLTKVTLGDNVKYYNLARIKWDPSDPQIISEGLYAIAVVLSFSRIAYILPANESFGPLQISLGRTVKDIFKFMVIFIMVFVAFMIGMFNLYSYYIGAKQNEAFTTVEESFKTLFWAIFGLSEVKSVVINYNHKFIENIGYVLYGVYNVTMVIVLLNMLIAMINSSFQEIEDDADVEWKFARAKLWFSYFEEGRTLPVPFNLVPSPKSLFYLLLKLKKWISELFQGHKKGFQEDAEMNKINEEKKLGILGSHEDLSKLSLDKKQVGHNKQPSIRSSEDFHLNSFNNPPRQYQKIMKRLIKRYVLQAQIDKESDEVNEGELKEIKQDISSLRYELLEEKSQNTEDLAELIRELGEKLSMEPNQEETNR

[2] = target: T2, Orai1 (Homo sapiens, UniProt Q96D31); assay: ICRAC current inhibition in HEK cells over-expressing Orai1/STIM1 (data not shown); details: HEK293; read-out: % inhibition at 10 μmol/L
T2 construct: Orai1/STIM1 over-expressed in HEK cells; with STIM1

[3] = target: T1, TRPC6; assay: Fura-2 calcium imaging in HEK-TRPC6 cells, inhibition of GSK-2934A-induced signal; design: human TRPC6 stably expressed in HEK cells

T2 sequence (Q96D31 whole entry): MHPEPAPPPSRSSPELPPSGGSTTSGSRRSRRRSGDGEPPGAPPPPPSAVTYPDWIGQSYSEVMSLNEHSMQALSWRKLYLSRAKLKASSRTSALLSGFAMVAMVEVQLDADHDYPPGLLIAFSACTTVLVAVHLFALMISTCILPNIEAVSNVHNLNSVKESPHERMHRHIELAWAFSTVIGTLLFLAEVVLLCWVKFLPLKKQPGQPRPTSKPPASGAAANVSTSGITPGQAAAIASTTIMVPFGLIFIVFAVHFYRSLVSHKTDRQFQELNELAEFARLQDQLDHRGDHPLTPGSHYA
T2 sequence (Q13586 23-685 partner): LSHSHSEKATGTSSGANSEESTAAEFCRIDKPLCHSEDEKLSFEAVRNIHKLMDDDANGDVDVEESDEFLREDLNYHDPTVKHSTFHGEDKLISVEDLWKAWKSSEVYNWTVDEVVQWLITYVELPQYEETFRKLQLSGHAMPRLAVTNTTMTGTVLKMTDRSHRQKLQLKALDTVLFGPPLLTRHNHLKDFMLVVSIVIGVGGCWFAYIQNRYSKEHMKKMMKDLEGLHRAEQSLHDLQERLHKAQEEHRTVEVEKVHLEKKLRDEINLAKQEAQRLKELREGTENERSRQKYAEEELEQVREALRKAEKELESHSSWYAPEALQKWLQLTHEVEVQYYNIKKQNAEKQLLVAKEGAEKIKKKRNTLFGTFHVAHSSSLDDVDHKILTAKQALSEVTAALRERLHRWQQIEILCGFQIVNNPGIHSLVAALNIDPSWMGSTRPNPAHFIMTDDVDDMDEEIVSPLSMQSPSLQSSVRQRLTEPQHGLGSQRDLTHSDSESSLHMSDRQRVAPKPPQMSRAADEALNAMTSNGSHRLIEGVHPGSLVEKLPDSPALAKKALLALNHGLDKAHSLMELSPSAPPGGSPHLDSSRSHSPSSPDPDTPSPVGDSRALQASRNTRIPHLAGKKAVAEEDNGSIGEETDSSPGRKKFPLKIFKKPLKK

EC50 [1]: 6.6 pEC50
SMILES: O=C(c1cc2c(s1)CCCCC2)N1CCC(n2c(=O)[nH]c3ccccc32)CC1 [GSK-2934A, GSK1702934A]

inhibition at 10 µM [2]: 94 ± 3%
SMILES: COc1ccc(OC)c(-c2ccc(NC(=O)c3ccncc3F)cc2)c1 [Synta66]

IC50 [3]: 7.8 pIC50
SMILES: Cc1sc(Nc2ccc(Cl)cc2F)nc1C(=O)N1CCC[C@H](C)[C@@H]1C [GSK-3503A, GSK2833503A]

Source: article PMC5350174, “Orai and TRPC channel characterization in FcεRI‐mediated calcium signaling and mediator secretion in human mast cells” (Physiological Reports, 2017)
